Converted amounts (≈) assume the structure as drawn.
How the values were obtained:
Experiment in all cases: Agar dilution MIC in DST agar (Ericsson and Sherris)
Type in all cases: cell-based
Proteus morganii 2359 = details: for MIC Prot. 2359: in vitro; for MIC: Morganella morganii, 2359, in vitro, read-out: MIC Prot. 2359
Text: (§1) Die antibiotische Aktivität der Testverbindungen in vitro wurde durch die Agarverdünnungsmethode nach Ericsson, H.M., und Sherris, S.C., 1971, Acta Path. Microb. Scand. Section B, Suppl. No. 217, Bd. 1-90, in DST Agara ermittelt. Die gefundenen, das Wachstum der Testorganismen noch hemmenden Minimalkonzentrationen (MIC = minimum inhibiting concentrations) werden in Mikrogramm pro Milliliter (µg/ml) für die geprüften Verbindungen in der Tabelle 1 angegeben.

[1] = tested on: Pseudomonas aeruginosa K 799/61; details: for MIC Pseu. 799: in vitro, agar dilution, DST agar; for MIC: Pseudomonas aeruginosa, K799/61, read-out: MIC Pseu. 799
Text: as §1

[2] = tested on: Salmonella Typhimurium 277; details: in vitro; for MIC: Salmonella enterica, TYPHIMURIUM, read-out: MIC Salm. 277
Text: as §1

Proteus morganii 1518 = details: for MIC Prot. 1518: in vitro; for MIC: Morganella morganii, 1518, in vitro, read-out: MIC Prot. 1518
Text: as §1

Escherichia coli 2018 = details: for MIC Esch. 2018: in vitro; for MIC: Escherichia coli, 2018, in vitro, read-out: MIC Esch. 2018
Text: as §1

Escherichia coli 205 = details: for MIC Esch. 205: in vitro; for MIC: Escherichia coli, 205, in vitro, read-out: MIC Esch. 205
Text: as §1

[3] = tested on: Staphylococcus aureus 2999; details: for MIC Staph. 2999: in vitro; for MIC: Staphylococcus aureus, 2999, in vitro, read-out: MIC Staph. 2999
Text: as §1

[4] = tested on: Staphylococcus aureus 10B; details: in vitro; for MIC: Staphylococcus aureus, 10B, read-out: MIC Staph. 10B
Text: as §1

Compound | MIC Prot. 2359 (Proteus morganii 2359) [µg/mL] | MIC Pseu. 799 [1] [µg/mL] | MIC Salm. 277 [2] [µg/mL] | MIC Prot. 1518 (Proteus morganii 1518) [µg/mL] | MIC Esch. 2018 (Escherichia coli 2018) [µg/mL] | MIC Esch. 205 (Escherichia coli 205) [µg/mL] | MIC Staph. 2999 [3] [µg/mL] | MIC Staph. 10B [4] [µg/mL] | MIC (Proteus morganii 2359) [µg/mL] | MIC [1] [µg/mL] | MIC [2] [µg/mL] | MIC (Proteus morganii 1518) [µg/mL] | MIC (Escherichia coli 2018) [µg/mL] | MIC (Escherichia coli 205) [µg/mL] | MIC [3] [µg/mL] | MIC [4] [µg/mL]
4-[4-(2-Methoxyethyl)-piperazinyl]-imidazolo[4,5-c]rifamycin SV [Verbindung 63] | 8 | 32 | 32 | 8 | 8 | 16 | 0.01 | 0.01 |  |  |  |  |  |  |  | 
CCC(C)CN1CCN(c2nc3c([nH]2)c2c(O)c4c(O)c(C)c5c(c43)C(=O)[C@@](C)(O/C=C/[C@H](OC)[C@@H](C)[C@@H](OC(C)=O)[C@H](C)[C@H](O)[C@H](C)[C@@H](O)[C@@H](C)/C=C/C=C(/C)C(=O)N2)O5)CC1 (stereo partly shown) [Verbindung 38, 4-[4-(2-Methyl-butyl)piperazinyl]-imidazolo[4,5-c]rifamycin SV] |  |  |  |  |  |  |  |  | 2 (≈ 2.28 µM) | 16 (≈ 18.3 µM) | 16 (≈ 18.3 µM) | 4 (≈ 4.57 µM) | 2 (≈ 2.28 µM) | 4 (≈ 4.57 µM) | 0.005 (≈ 0.00571 µM) | 0.005 (≈ 0.00571 µM)
4-(4-Methoxycarbonylmethylpiperazinyl)-imidazolo[4,5-c]-rifamycin SV [Verbindung 71] | 32 | 128 | 128 | 32 | 32 | 32 | 0.02 | 0.02 |  |  |  |  |  |  |  | 
CO[C@H]1/C=C/O[C@@]2(C)Oc3c(C)c(O)c4c(O)c(c5[nH]c(N(C)C6CCN(C)CC6)nc5c4c3C2=O)NC(=O)/C(C)=C\C=C\[C@H](C)[C@H](O)[C@@H](C)[C@@H](O)[C@@H](C)[C@H](OC(C)=O)[C@@H]1C [Verbindung 13] |  |  |  |  |  |  |  |  | 16 (≈ 18.9 µM) | 8 (≈ 9.43 µM) | 32 (≈ 37.7 µM) | 16 (≈ 18.9 µM) | 8 (≈ 9.43 µM) | 8 (≈ 9.43 µM) | 0.05 (≈ 0.059 µM) | 0.05 (≈ 0.059 µM)
CO[C@H]1/C=C/O[C@@]2(C)Oc3c(C)c(O)c4c(O)c(c5[nH]c(N6CCN(CCC(C)C)CC6)nc5c4c3C2=O)NC(=O)/C(C)=C\C=C\[C@H](C)[C@H](O)[C@@H](C)[C@@H](O)[C@@H](C)[C@H](OC(C)=O)[C@@H]1C [Verbindung 40, 4-[4-(3-Methylbutyl)piperazinyl]-imidazolo[4,5-c]rifamycin SV] |  |  |  |  |  |  |  |  | 8 (≈ 9.13 µM) | 16 (≈ 18.3 µM) | 32 (≈ 36.5 µM) | 8 (≈ 9.13 µM) | 8 (≈ 9.13 µM) | 8 (≈ 9.13 µM) | 0.005 (≈ 0.00571 µM) | 0.005 (≈ 0.00571 µM)
4-(4-Isobutyrylpiperazinyl)-imidazolo[4,5-c]rifamycin SV [Verbindung 70] | 32 | 128 | 128 | 32 | 32 | 32 | 0.02 | 0.02 |  |  |  |  |  |  |  | 
CO[C@H]1/C=C/O[C@@]2(C)Oc3c(C)c(O)c4c(O)c(c5nc(N6CCCCCC6)[nH]c5c4c3C2=O)NC(=O)/C(C)=C\C=C\[C@H](C)[C@H](O)[C@@H](C)[C@@H](O)[C@@H](C)[C@H](OC(C)=O)[C@@H]1C [Verbindung 27, 4-(1-Perhydroazepinyl)-imidazolo[4,5-c]rifamycin SV] | 8 (≈ 9.77 µM) | 8 (≈ 9.77 µM) | 32 (≈ 39.1 µM) | 2 (≈ 2.44 µM) | 8 (≈ 9.77 µM) | 8 (≈ 9.77 µM) | 0.001 (≈ 0.00122 µM) | 0.001 (≈ 0.00122 µM) |  |  |  |  |  |  |  | 
4-[4-(2-Dimethylaminoethyl)-piperazinyl-imidazolo[4,5-cl- rifamycin SV [Verbindung 69] | 32 | 128 | 128 | 32 | 32 | 32 | 0.05 | 0.05 |  |  |  |  |  |  |  | 
CCOC(=O)C1CCN(c2nc3c([nH]2)c2c(O)c4c(O)c(C)c5c(c43)C(=O)[C@@](C)(O/C=C/[C@H](OC)[C@@H](C)[C@@H](OC(C)=O)[C@H](C)[C@H](O)[C@H](C)[C@@H](O)[C@@H](C)/C=C/C=C(/C)C(=O)N2)O5)CC1 [Verbindung 22, 4-(4-Ethoxycarbonyl-1-piperidyl)-imidazolo[4,5-c]rifamycin SV] |  |  |  |  |  |  |  |  | 4 (≈ 4.56 µM) | 16 (≈ 18.2 µM) | 32 (≈ 36.5 µM) | 4 (≈ 4.56 µM) | 8 (≈ 9.12 µM) | 16 (≈ 18.2 µM) | 0.005 (≈ 0.0057 µM) | 0.005 (≈ 0.0057 µM)
4-{4-[2-(1,3- Dioxolan-2-yl)-ethyl]-piperazinyl}-imidazolo-[4,5-c]rifamycin SV [Verbindung 62] | 8 | 32 | 128 | 8 | 32 | 32 | 0.02 | 0.02 |  |  |  |  |  |  |  | 
CO[C@H]1/C=C/O[C@@]2(C)Oc3c(C)c(O)c4c(O)c(c5[nH]c(N6CCC(N7CCCCC7)CC6)nc5c4c3C2=O)NC(=O)/C(C)=C\C=C\[C@H](C)[C@H](O)[C@@H](C)[C@@H](O)[C@@H](C)[C@H](OC(C)=O)[C@@H]1C [Verbindung 24, 4-(4-Piperidino-1-piperidyl-)-imidazolo[4,5-c]rifamycin SV] |  |  |  |  |  |  |  |  | 4 (≈ 4.5 µM) | 16 (≈ 18 µM) | 16 (≈ 18 µM) | 8 (≈ 9.01 µM) | 4 (≈ 4.5 µM) | 8 (≈ 9.01 µM) | 0.01 (≈ 0.0113 µM) | 0.05 (≈ 0.0563 µM)
4-[4-(2-Tetrahydrofurylmethyl)-piperazinyl]-imidazolo-[4,5-c]rifamycin SV [Verbindung 61] | 4 | 32 | 32 | 4 | 4 | 16 | 0.005 | 0.005 |  |  |  |  |  |  |  | 
4-[4-(2,2-Dimethoxyethyl)-piperazinyl]-imidazolo- [4,5-c]rifamycin SV [Verbindung 65] | 32 | 32 | 128 | 32 | 32 | 32 | 0.01 | 0.05 |  |  |  |  |  |  |  | 
4-(4-Propyliperazinyl)-imidazolo[4,5-c]rifamycin SV [Verbindung 32] | 8 | 8 | 32 | 8 | 8 | 8 | 0.001 | 0.001 |  |  |  |  |  |  |  | 
4-[4-(l,3-Dimethylpropyl)-piperazinyl]-imidazolo[4,5-c]-rifamycin SV [Verbindung 43] | 8 | 16 | 32 | 8 | 4 | 8 | 0.005 | 0.01 |  |  |  |  |  |  |  | 
4-[4-(2-Methyl-3-phenyl-propyl)-piperazinyl]-imidazolo- [4,5-c]rifamycin SV [Verbindung 58] | 16 | 16 | 32 | 16 |  | 16 | 0.005 | 0.005 |  |  |  |  |  |  |  | 
